From PubChem BioAssay (NCI) come the findings set out here.

Some test systems named below: SNB-19 CNS; U251 CNS; NCI-H23 lung; LOX IMVI melanoma; OVCAR-3 ovarian; CAKI-1 renal; SK-MEL-5 melanoma; HCC-2998 colon; ACHN renal; SNB-75 CNS; MDA-MB-435; UO-31 renal; HT29 colon; HS 578T breast; HL-60(TB) leukemia; SF-295 CNS; SK-MEL-2 melanoma.
Holding throughout (assay): growth of human tumour cells (NCI), 48 h

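All cell lines were grown in 96-well plates and treated with compound for 48 hours. TGI is the concentration that stops growth completely.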 Some results are limits rather than exact numbers.

As to `CCCC(O)c1cn(C(NC(=O)c2ccccc2)P(=O)(OCC)OCC)nn1` (stereo not given), the TGI with SNB-19 CNS, in the experiment on U251 CNS, in the experiment with NCI-H23 lung, in the experiment on LOX IMVI melanoma, in the experiment on OVCAR-3 ovarian and in the experiment with CAKI-1 renal was over 100 µM throughout. Moreover, the TGI with SK-MEL-5 melanoma, in the experiment with HCC-2998 colon, in the experiment with ACHN renal, in the experiment with SNB-75 CNS, with MDA-MB-435 and in the experiment on UO-31 renal was over 100 µM each time. Further, the TGI with HT29 colon, with HS 578T breast, with HL-60(TB) leukemia, in the experiment with SF-295 CNS and in the experiment with SK-MEL-2 melanoma was over 100 µM throughout.
As to `CC12CC3OC(=O)C1COC14OC5(C2C1=O)C(O)(CCC1C4CC2OC24CC=CC(=O)C14C)C(=O)OC35C` (stereo not given), the TGI in the experiment on SNB-19 CNS came out at 44.9 µM; with U251 CNS, 35.9 µM; in the experiment with NCI-H23 lung, 33.1 µM; in the experiment on LOX IMVI melanoma, 29.5 µM; with OVCAR-3 ovarian it was 28.7 µM; in the experiment on CAKI-1 renal it was 25.8 µM. Moreover, the TGI in the experiment with SK-MEL-5 melanoma was 11.5 µM; with HCC-2998 colon, 32.8 µM; in the experiment on ACHN renal, 30.8 µM; in the experiment with SNB-75 CNS, over 100 µM; in the experiment with MDA-MB-435, 32.9 µM; in the experiment on UO-31 renal it was 31.1 µM. The TGI was over 100 µM in the experiment with HT29 colon; over 100 µM with HS 578T breast; 28.7 µM in the experiment on HL-60(TB) leukemia; 69.5 µM in the experiment on SF-295 CNS; 28.1 µM in the experiment on SK-MEL-2 melanoma.
Consider `O=[N+]([O-])c1ccc(N/N=C/CC(O)(C(F)(F)F)C(F)(F)F)c([N+](=O)[O-])c1`, for which the TGI in the experiment with SNB-19 CNS is over 10 µM; in the experiment on U251 CNS, over 10 µM; in the experiment with NCI-H23 lung, over 10 µM; with LOX IMVI melanoma it was over 10 µM; with OVCAR-3 ovarian, 8.46 µM; with CAKI-1 renal, over 10 µM. The TGI in the experiment with SK-MEL-5 melanoma, in the experiment on HCC-2998 colon, in the experiment on ACHN renal, in the experiment on SNB-75 CNS, with MDA-MB-435 and in the experiment on UO-31 renal was over 10 µM throughout. For the same molecule, the TGI in the experiment with HT29 colon was over 10 µM; in the experiment with HS 578T breast, 8.16 µM; in the experiment on HL-60(TB) leukemia, over 10 µM; with SF-295 CNS, over 10 µM; in the experiment with SK-MEL-2 melanoma, 6.64 µM.
With `COc1cc2cc(C(=O)N3CC(CCl)c4c3cc(NC(=O)OCc3ccc([N+](=O)[O-])cc3)c3ccccc43)[nH]c2c(OC)c1OC` (stereo not given), the TGI in the experiment on SNB-19 CNS was over 100 µM; in the experiment on U251 CNS, over 100 µM; in the experiment on NCI-H23 lung, over 45.4 µM; in the experiment with LOX IMVI melanoma it was over 100 µM; in the experiment with OVCAR-3 ovarian, over 100 µM; in the experiment with CAKI-1 renal, over 39.4 µM. Besides, the TGI with SK-MEL-5 melanoma is over 100 µM; in the experiment on HCC-2998 colon, 16.3 µM; in the experiment with ACHN renal, over 34.5 µM; in the experiment with SNB-75 CNS, 67.3 µM; with MDA-MB-435, over 100 µM; in the experiment on UO-31 renal, 0.516 µM. The TGI in the experiment with HT29 colon was over 100 µM; in the experiment on HS 578T breast, over 100 µM; in the experiment on HL-60(TB) leukemia, over 38.5 µM; with SF-295 CNS, over 56.2 µM; in the experiment on SK-MEL-2 melanoma, over 100 µM.
For `O=c1sc2c(s1)-c1sc(=O)sc1SS2`, the TGI was over 100 µM in the experiment with SNB-19 CNS; over 31.6 µM with U251 CNS; over 60.5 µM in the experiment on NCI-H23 lung; over 100 µM in the experiment on LOX IMVI melanoma; over 100 µM with OVCAR-3 ovarian; over 100 µM in the experiment on CAKI-1 renal. In addition, the TGI in the experiment on SK-MEL-5 melanoma, in the experiment on HCC-2998 colon, with ACHN renal, in the experiment with SNB-75 CNS, in the experiment on MDA-MB-435 and in the experiment on UO-31 renal was over 100 µM each time. In addition, the TGI with HT29 colon is over 56.9 µM; in the experiment with HS 578T breast it was over 100 µM; in the experiment with HL-60(TB) leukemia it was over 100 µM; in the experiment with SF-295 CNS, over 100 µM; in the experiment on SK-MEL-2 melanoma, over 100 µM.
As to `CCN(CC)C(=S)Nc1ccc(-c2cc3ccc(O)cc3oc2=O)cc1`, the TGI in the experiment on SNB-19 CNS is over 100 µM; in the experiment with U251 CNS, 85.1 µM; in the experiment on NCI-H23 lung it was over 100 µM; in the experiment on LOX IMVI melanoma, over 100 µM; with OVCAR-3 ovarian, 78.3 µM; in the experiment on CAKI-1 renal it was over 100 µM. Also, the TGI in the experiment with SK-MEL-5 melanoma is 48.8 µM; in the experiment with HCC-2998 colon it was 39.8 µM; in the experiment on ACHN renal it was over 100 µM; with SNB-75 CNS it was over 100 µM; in the experiment with MDA-MB-435, over 100 µM; in the experiment with UO-31 renal it was over 100 µM. In addition, the TGI was 30.4 µM in the experiment with HT29 colon; 71.6 µM in the experiment on HS 578T breast; 23.2 µM in the experiment with HL-60(TB) leukemia; over 100 µM in the experiment with SF-295 CNS; 49.3 µM in the experiment with SK-MEL-2 melanoma.
As to `COc1ccc(NC(=O)CC(=O)n2nc(C)c(N=Nc3cccc(C)c3)c2C)cc1`, the TGI in the experiment with SNB-19 CNS, in the experiment with U251 CNS, in the experiment on NCI-H23 lung, in the experiment on LOX IMVI melanoma, in the experiment on OVCAR-3 ovarian and with CAKI-1 renal was over 100 µM each time. Besides, the TGI in the experiment on SK-MEL-5 melanoma, with HCC-2998 colon, in the experiment on ACHN renal, in the experiment with SNB-75 CNS, with MDA-MB-435 and in the experiment on UO-31 renal was over 100 µM in each case. Besides, the TGI in the experiment with HT29 colon, with HS 578T breast, in the experiment on HL-60(TB) leukemia, in the experiment on SF-295 CNS and in the experiment with SK-MEL-2 melanoma was over 100 µM throughout.
With `COc1ccc(/C=C/C(=O)c2cc(C(C)(C)C)c(O)c(C(C)(C)C)c2)cc1OC`, the TGI with SNB-19 CNS was 64.1 µM; in the experiment on U251 CNS, 29.8 µM; with NCI-H23 lung, over 68.9 µM; in the experiment with LOX IMVI melanoma it was 29.3 µM; in the experiment on OVCAR-3 ovarian, over 100 µM; in the experiment on CAKI-1 renal it was over 90 µM. The TGI was determined as 20.7 µM with SK-MEL-5 melanoma; 7.74 µM in the experiment on HCC-2998 colon; 99.3 µM in the experiment on ACHN renal; 13.5 µM with SNB-75 CNS; 21.2 µM with MDA-MB-435; 57.9 µM in the experiment with UO-31 renal. Also, the TGI in the experiment with HT29 colon is 60 µM; in the experiment on HS 578T breast it was over 77.2 µM; in the experiment on HL-60(TB) leukemia, 17.6 µM; in the experiment on SF-295 CNS it was over 71.1 µM; in the experiment with SK-MEL-2 melanoma, 16.5 µM.
Regarding `COc1ccc(/C=C2\CCS(=O)(=O)c3ccccc3C2=O)cc1OC`, the TGI in the experiment with SNB-19 CNS is over 100 µM; in the experiment with U251 CNS it was over 100 µM; in the experiment on NCI-H23 lung, over 100 µM; in the experiment with LOX IMVI melanoma, 43.8 µM; in the experiment on OVCAR-3 ovarian, over 100 µM; in the experiment on CAKI-1 renal, over 100 µM. The TGI in the experiment on HCC-2998 colon was 44.1 µM; with ACHN renal, over 100 µM; in the experiment with SNB-75 CNS it was 98.4 µM; in the experiment on MDA-MB-435 it was over 100 µM; with UO-31 renal it was over 100 µM; in the experiment on HT29 colon it was over 100 µM. Further, the TGI in the experiment on HS 578T breast was over 100 µM; in the experiment on HL-60(TB) leukemia, 70 µM; with SF-295 CNS it was over 100 µM; in the experiment with SK-MEL-2 melanoma it was over 100 µM.
With `CC(C)CCCC(C)[C@H]1CC[C@H]2[C@@H]3CC[C@H]4C[C@@H](CCC=C(c5cc(Cl)c(O)c(C(=O)OC(C)C)c5)c5cc(Cl)c(O)c(C(=O)OC(C)C)c5)CC[C@]4(C)[C@H]3CC[C@]12C` (stereo not given in full), the TGI in the experiment with SNB-19 CNS, with U251 CNS, with NCI-H23 lung, in the experiment on LOX IMVI melanoma, in the experiment with OVCAR-3 ovarian and in the experiment on CAKI-1 renal was over 50 µM each time. Moreover, the TGI in the experiment on SK-MEL-5 melanoma, in the experiment on HCC-2998 colon, in the experiment with SNB-75 CNS, in the experiment with MDA-MB-435, in the experiment on HT29 colon and in the experiment with HS 578T breast was over 50 µM throughout. The TGI with HL-60(TB) leukemia, in the experiment on SF-295 CNS and in the experiment on SK-MEL-2 melanoma was over 50 µM in each case.
`CCOC(=O)c1c(-c2ccc(Cl)cc2)c(C#N)c(=S)n(C2OC(COC(C)=O)C(OC(C)=O)C(OC(C)=O)C2OC(C)=O)c1-c1ccccc1` (stereo not given): the TGI in the experiment on SNB-19 CNS, with U251 CNS, with NCI-H23 lung, with LOX IMVI melanoma, in the experiment with OVCAR-3 ovarian and with CAKI-1 renal was over 100 µM each time. The TGI in the experiment with SK-MEL-5 melanoma, in the experiment with HCC-2998 colon, with ACHN renal, in the experiment with SNB-75 CNS, with MDA-MB-435 and in the experiment with UO-31 renal was over 100 µM in each case. The TGI in the experiment with HT29 colon, in the experiment on HS 578T breast, in the experiment with HL-60(TB) leukemia, with SF-295 CNS and in the experiment with SK-MEL-2 melanoma was over 100 µM each time.
In the case of `O=C1Nc2ccccc2Cn2c1cc1oc(-c3ccccc3)cc12`, the TGI in the experiment with SNB-19 CNS was 66.5 µM; in the experiment on U251 CNS, 36.3 µM; in the experiment on NCI-H23 lung it was over 100 µM; in the experiment with LOX IMVI melanoma, over 100 µM; with OVCAR-3 ovarian, over 100 µM; in the experiment with CAKI-1 renal, over 100 µM. Besides, the TGI is over 100 µM with SK-MEL-5 melanoma; over 100 µM in the experiment on HCC-2998 colon; over 100 µM in the experiment on ACHN renal; 64.2 µM with SNB-75 CNS; over 100 µM in the experiment with MDA-MB-435; over 100 µM in the experiment on HT29 colon. In addition, the TGI in the experiment with HS 578T breast is 44.3 µM; with HL-60(TB) leukemia, over 100 µM; in the experiment on SF-295 CNS it was 63.3 µM; in the experiment with SK-MEL-2 melanoma it was over 100 µM.
